Laboratory results published in article PMC12035560, “Structures of Mycobacterium tuberculosis isoprenyl diphosphate synthase Rv2173 in substrate-bound forms” (Acta Crystallographica Section F: Structural Biology …, 2025).

Biological target: T1, Rv2173 (Mycobacterium tuberculosis, UniProt O53507)
T1 construct: gene idsA2
T1 sequence (O53507 whole entry): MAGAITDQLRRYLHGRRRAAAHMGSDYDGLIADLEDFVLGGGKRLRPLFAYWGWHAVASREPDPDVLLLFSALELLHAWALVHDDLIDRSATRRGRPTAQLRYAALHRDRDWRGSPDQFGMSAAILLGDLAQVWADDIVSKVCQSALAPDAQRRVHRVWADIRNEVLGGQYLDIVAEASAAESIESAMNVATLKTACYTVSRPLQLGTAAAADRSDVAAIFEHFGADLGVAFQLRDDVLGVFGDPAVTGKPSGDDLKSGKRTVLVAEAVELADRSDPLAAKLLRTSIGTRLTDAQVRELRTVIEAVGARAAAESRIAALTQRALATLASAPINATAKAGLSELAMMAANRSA

Q: How did the “X-ray crystal structure, 2.20 A, co-crystallization” value turn out when `CC(C)=CCOP(=O)(O)OP(=O)(O)O` [DMAPP] was run?
A: The value was “Two metal ions bind to the FARM, coordinating to the DMAPP bound in the allylic/DMAPP site”.
